Measurements reported in PubChem BioAssay (NCI).
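Following 48 hours of exposure in 96-well plates, responses at five concentrations were used to interpolate endpoints linearly. TGI: total growth inhibition.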

Experiments:
Test in all cases: inhibition of tumour cell growth, NCI panel, 48 h
[1] = system: 786-0 renal
[2] = system: A498 renal
[3] = system: A549 NSCLC
[4] = system: ACHN renal
[5] = system: CAKI-1 renal
[6] = system: CCRF-CEM leukemia
[7] = system: COLO 205 colon
[8] = system: DLD-1 colon
[9] = system: DMS 273 small cell lung
[10] = system: HCC-2998 colon
[11] = system: HCT-116 colon
[12] = system: HCT-15 colon
[13] = system: HL-60(TB) leukemia
[14] = system: HOP-18 NSCLC
[15] = system: HOP-62 NSCLC
[16] = system: HOP-92 NSCLC
[17] = system: HT29 colon
[18] = system: IGROV1 ovarian
[19] = system: K-562 leukemia
[20] = system: KM12 colon
[21] = system: KM20L2 colon
[22] = system: LOX IMVI melanoma
[23] = system: LXFL 529 NSCLC
[24] = system: M14 melanoma
[25] = system: M19-MEL melanoma
[26] = system: MALME-3M melanoma
[27] = system: MOLT-4 leukemia
[28] = system: NCI-H226 lung
[29] = system: NCI-H23 lung
[30] = system: NCI-H460 lung
[31] = system: NCI-H522 lung
[32] = system: OVCAR-3 ovarian
[33] = system: OVCAR-4 ovarian
[34] = system: OVCAR-5 ovarian
[35] = system: OVCAR-8 ovarian
[36] = system: RPMI-8226 leukemia
[37] = system: RXF 393 renal
[38] = system: RXF-631 renal
[39] = system: SF-268 CNS
[40] = system: SF-295 CNS
[41] = system: SF-539 CNS
[42] = system: SK-MEL-28 melanoma
[43] = system: SK-MEL-5 melanoma
[44] = system: SN12C renal
[45] = system: SNB-19 CNS
[46] = system: SNB-78 CNS
[47] = system: SR leukemia
[48] = system: SW-620 colon
[49] = system: TK-10 renal
[50] = system: U251 CNS
[51] = system: UACC-257 melanoma
[52] = system: UACC-62 melanoma
[53] = system: XF 498 CNS

Measured: TGI

COC1OC(C)C2OC(C)(C)OC2C1OC(C)=O (stereo not drawn)
> 100 µM: [1] | [2] | [3] | [4] | [5] | [6] | [7] | [8] | [9] | [10] | [11] | [12] | [13] | [14] | [15] | [16] | [17] | [18] | [19] | [20] | [21] | [22] | [23] | [24] | [25] | [26] | [27] | [28] | [29] | [30] | [31] | [32] | [33] | [34] | [35] | [36] | [37] | [38] | [39] | [40] | [41] | [42] | [43] | [44] | [45] | [46] | [47] | [48] | [49] | [50] | [51] | [52] | [53]
